{
  "source": "patent US10301320B2",
  "about": "“Compositions and methods of modulating 15-PGDH activity” (CASE WESTERN RESERVE UNIVERSITY, priority 2012, dated 2019)",
  "key": {"[1]": {"test_system": "15-PGDH-luciferase fusion reporter in V9m, LS174T and V503 cell lines", "experiment": "15-PGDH-luciferase fusion gene reporter induction in three colon cancer cell lines (stated jointly)", "format": "cell-based"}, "[2]": {"test_system": "15-PGDH mRNA in colon cancer cell lines", "experiment": "15-PGDH mRNA levels by real-time PCR", "format": "cell-based", "text": "In these studies parental cell lines (not containing the 15-PGDH-luciferase reporter) are employed."}, "A549 cells": {"test_system": "A549 cells", "experiment": "Cellular toxicity on A549 cells (CellTiter-Glo, cell numbers)", "format": "cell-based", "experimental": "Time to inhibition refers to the time needed to inhibit the generation of NADH by 15-PGDH from the moment with drug is added into the reaction mix. Delta™ refers to the shift in melting temperature of recombinant 15-PGDH in the presence of drug (with cofactor NADH also present). Concentration of Full Cell Line Reporter Induction refers to the concentration of drug that needs to be added to reporter cell line to achieve maximal induction of the 15-PGDH-luciferase gene fusion reporter cassette, as measured by luciferase assays. Hepatocyte stability refers to the half-life of compound in the presence of hepatocytes in culture. Toxicity refers to the concentration of compound needed to decrease cell numbers in a cell culture assay.\nFIGS. 38(A-C) show assays of cellular toxicity on A549 cells at 24 hours of 15-PGDH inhibitors as assayed by CellTiter-Glo measurement.\nFIGS. 84(A-C) show at left (84A) activity in lowering PGE2 levels in media of A549 cells that are stimulated to produce PGE2 by treatment with IL1-beta."}, "C57BL/6J mice [3]": {"test_system": "C57BL/6J mice", "experiment": "Survival after 11 Gy irradiation and bone marrow allograft", "format": "in vivo", "text": "The experimental design is depicted in FIG. 50.\nUnder the conditions of the mouse colony during this study, control mice receiving 100,000-500,000 cells are all dead between days 4-13 of study. […] Such activity would be of particular utility in settings, such as transplantation with umbilical cord stem cells, in which donor cell numbers are limited."}, "C57BL/6J mice [4]": {"test_system": "C57BL/6J mice", "experiment": "Survival after whole body irradiation", "format": "in vivo"}},
  "data": [
    {"smiles": "CCCC[S+]([O-])c1sc2nc(-c3cccs3)cc(-c3ccccc3)c2c1N", "note": "(stereo not drawn) [SW033291, 2-(butylsulfinyl)-4-phenyl-6-(thiophen-2-yl)thieno[2,3-b]pyridin-3-amine]", "values": [
      {"measurement": "Induction of 15-PGDH-luciferase reporter, in words", "setting": "[1]", "result": "increase luciferase activity"},
      {"measurement": "15-PGDH mRNA levels", "setting": "[2]; V503 cells", "result": "slight increase in 15-PGDH mRNA"},
      {"measurement": "15-PGDH mRNA levels", "setting": "[2]; treated colon cancer cell lines, real-time PCR", "result": "do not in general alter 15-PGDH mRNA levels"},
      {"measurement": "Toxicity, CellTiter-Glo", "setting": "A549 cells; 24 hours, up to 10 uM in FIG. 38", "result": "No effect on CellTitre-Glo levels"},
      {"measurement": "Toxicity", "setting": "A549 cells; concentration needed to decrease cell numbers in a cell culture assay", "result": ">10", "unit": "µM"},
      {"measurement": "Survival of transplanted mice, in words", "setting": "C57BL/6J mice [3]; 5 mg/kg IP twice daily", "result": "promoted survival of mice receiving a bone marrow transplant"},
      {"measurement": "Mouse survival (number of surviving mice)", "setting": "C57BL/6J mice [3]; 1 × 10^5 cells, Day 1", "result": 3},
      {"measurement": "Mouse survival (number of surviving mice)", "setting": "C57BL/6J mice [3]; 1 × 10^5 cells, Day 2", "result": 3},
      {"measurement": "Mouse survival (number of surviving mice)", "setting": "C57BL/6J mice [3]; 1 × 10^5 cells, Day 3", "result": 3},
      {"measurement": "Mouse survival (number of surviving mice)", "setting": "C57BL/6J mice [3]; 1 × 10^5 cells, Day 4", "result": 2},
      {"measurement": "Mouse survival (number of surviving mice)", "setting": "C57BL/6J mice [3]; 1 × 10^5 cells, Day 5", "result": 1},
      {"measurement": "Mouse survival (number of surviving mice)", "setting": "C57BL/6J mice [3]; 1 × 10^5 cells, Day 6", "result": 0},
      {"measurement": "Mouse survival (number of surviving mice)", "setting": "C57BL/6J mice [3]; 2 × 10^5 cells, Day 1", "result": 3},
      {"measurement": "Mouse survival (number of surviving mice)", "setting": "C57BL/6J mice [3]; 2 × 10^5 cells, Day 2", "result": 3},
      {"measurement": "Mouse survival (number of surviving mice)", "setting": "C57BL/6J mice [3]; 2 × 10^5 cells, Day 3", "result": 3},
      {"measurement": "Mouse survival (number of surviving mice)", "setting": "C57BL/6J mice [3]; 2 × 10^5 cells, Day 4", "result": 3},
      {"measurement": "Mouse survival (number of surviving mice)", "setting": "C57BL/6J mice [3]; 2 × 10^5 cells, Day 5", "result": 3},
      {"measurement": "Mouse survival (number of surviving mice)", "setting": "C57BL/6J mice [3]; 2 × 10^5 cells, Day 6", "result": 2},
      {"measurement": "Mouse survival (number of surviving mice)", "setting": "C57BL/6J mice [3]; 2 × 10^5 cells, Day 7", "result": 2},
      {"measurement": "Mouse survival (number of surviving mice)", "setting": "C57BL/6J mice [3]; 2 × 10^5 cells, Day 8", "result": 2},
      {"measurement": "Mouse survival (number of surviving mice)", "setting": "C57BL/6J mice [3]; 2 × 10^5 cells, Day 9", "result": 2},
      {"measurement": "Mouse survival (number of surviving mice)", "setting": "C57BL/6J mice [3]; 2 × 10^5 cells, Day 10", "result": 2},
      {"measurement": "Mouse survival (number of surviving mice)", "setting": "C57BL/6J mice [3]; 2 × 10^5 cells, Day 11", "result": 2},
      {"measurement": "Mouse survival (number of surviving mice)", "setting": "C57BL/6J mice [3]; 2 × 10^5 cells, Day 12", "result": 1},
      {"measurement": "Mouse survival (number of surviving mice)", "setting": "C57BL/6J mice [3]; 2 × 10^5 cells, Day 13", "result": 0},
      {"measurement": "Mouse survival (number of surviving mice)", "setting": "C57BL/6J mice [3]; 5 × 10^5 cells, Day 1", "result": 3},
      {"measurement": "Mouse survival (number of surviving mice)", "setting": "C57BL/6J mice [3]; 5 × 10^5 cells, Day 2", "result": 3},
      {"measurement": "Mouse survival (number of surviving mice)", "setting": "C57BL/6J mice [3]; 5 × 10^5 cells, Day 3", "result": 3},
      {"measurement": "Mouse survival (number of surviving mice)", "setting": "C57BL/6J mice [3]; 5 × 10^5 cells, Day 4", "result": 3},
      {"measurement": "Mouse survival (number of surviving mice)", "setting": "C57BL/6J mice [3]; 5 × 10^5 cells, Day 5", "result": 3},
      {"measurement": "Mouse survival (number of surviving mice)", "setting": "C57BL/6J mice [3]; 5 × 10^5 cells, Day 6", "result": 3},
      {"measurement": "Mouse survival (number of surviving mice)", "setting": "C57BL/6J mice [3]; 5 × 10^5 cells, Day 7", "result": 3},
      {"measurement": "Mouse survival (number of surviving mice)", "setting": "C57BL/6J mice [3]; 5 × 10^5 cells, Day 8", "result": 2},
      {"measurement": "Mouse survival (number of surviving mice)", "setting": "C57BL/6J mice [3]; 5 × 10^5 cells, Day 9", "result": 2},
      {"measurement": "Mouse survival (number of surviving mice)", "setting": "C57BL/6J mice [3]; 5 × 10^5 cells, Day 10", "result": 2},
      {"measurement": "Mouse survival (number of surviving mice)", "setting": "C57BL/6J mice [3]; 5 × 10^5 cells, Day 11", "result": 2},
      {"measurement": "Mouse survival (number of surviving mice)", "setting": "C57BL/6J mice [3]; 5 × 10^5 cells, Day 12", "result": 2},
      {"measurement": "Mouse survival (number of surviving mice)", "setting": "C57BL/6J mice [3]; 5 × 10^5 cells, Day 13", "result": 2},
      {"measurement": "Mouse survival (number of surviving mice)", "setting": "C57BL/6J mice [3]; 5 × 10^5 cells, Day 19", "result": 2},
      {"measurement": "Survival longer than vehicle control", "setting": "C57BL/6J mice [4]; 11 Gy, 5 mg/kg IP daily for 7 doses", "result": 48, "unit": "h"},
      {"measurement": "Survival longer than vehicle control, on average", "setting": "C57BL/6J mice [4]; 11 Gy, any of the dosing schedules", "result": "1 to 2", "unit": "days"},
      {"measurement": "Number of mice surviving", "setting": "C57BL/6J mice [4]; Table 7, 7 Gy, Day 5", "result": 3},
      {"measurement": "Number of mice surviving", "setting": "C57BL/6J mice [4]; Table 7, 7 Gy, Day 6", "result": 3},
      {"measurement": "Number of mice surviving", "setting": "C57BL/6J mice [4]; Table 7, 7 Gy, Day 7", "result": 3},
      {"measurement": "Number of mice surviving", "setting": "C57BL/6J mice [4]; Table 7, 7 Gy, Day 8", "result": 3},
      {"measurement": "Number of mice surviving", "setting": "C57BL/6J mice [4]; Table 7, 7 Gy, Day 9", "result": 3},
      {"measurement": "Number of mice surviving", "setting": "C57BL/6J mice [4]; Table 7, 7 Gy, Day 10", "result": 3},
      {"measurement": "Number of mice surviving", "setting": "C57BL/6J mice [4]; Table 7, 7 Gy, Day 11", "result": 3},
      {"measurement": "Number of mice surviving", "setting": "C57BL/6J mice [4]; Table 7, 7 Gy, Day 12", "result": 3},
      {"measurement": "Number of mice surviving", "setting": "C57BL/6J mice [4]; Table 7, 7 Gy, Day 13", "result": 3},
      {"measurement": "Number of mice surviving", "setting": "C57BL/6J mice [4]; Table 7, 7 Gy, Day 14", "result": 3},
      {"measurement": "Number of mice surviving", "setting": "C57BL/6J mice [4]; Table 7, 7 Gy, Day 15", "result": 3},
      {"measurement": "Condition of surviving mice", "setting": "C57BL/6J mice [4]; Table 7, 7 Gy, Day 25 (Looks Healthy)", "result": "Healthy"},
      {"measurement": "Number of mice surviving", "setting": "C57BL/6J mice [4]; Table 7, 9 Gy, Day 5", "result": 3},
      {"measurement": "Number of mice surviving", "setting": "C57BL/6J mice [4]; Table 7, 9 Gy, Day 6", "result": 3},
      {"measurement": "Number of mice surviving", "setting": "C57BL/6J mice [4]; Table 7, 9 Gy, Day 7", "result": 3},
      {"measurement": "Number of mice surviving", "setting": "C57BL/6J mice [4]; Table 7, 9 Gy, Day 8", "result": 3},
      {"measurement": "Number of mice surviving", "setting": "C57BL/6J mice [4]; Table 7, 9 Gy, Day 9", "result": 3},
      {"measurement": "Number of mice surviving", "setting": "C57BL/6J mice [4]; Table 7, 9 Gy, Day 10", "result": 3},
      {"measurement": "Number of mice surviving", "setting": "C57BL/6J mice [4]; Table 7, 9 Gy, Day 11", "result": 3}
    ]}
  ]
}
